Results taken from the RepoRT retention time repository.

test: RP, Waters ACQUITY UPLC HSS T3, 0.1 mL/min; A: water + 0.01% formic acid; B: acetonitrile + 0.01% formic acid; gradient (min/%B) 0/10 38/45 45/45 55/0 60/0; settings: stereoisomer not certain

SMILES | LC retention time [min]
O=C(O)Cc1ccccc1Nc1c(Cl)cccc1Cl [Diclofenac] | 39.6
CC(C)(C)C(O)C(Oc1ccc(Cl)cc1)n1cncn1 (stereo unspecified) [Triadimenol] | 31.6
CC12CCC(=O)C=C1CCC1C2CCC2(C)C(O)CCC12 (stereo unspecified) [Testosterone] | 28.9
COc1cc2c(c3oc(=O)c4c(c13)CCC4=O)C1C=COC1O2 (stereo unspecified) [Aflatoxin B1] | 17.5
Oc1cc(Cl)ccc1Oc1ccc(Cl)cc1Cl [Triclosan] | 43.8
COC(=O)c1cccc(C)c1S(=O)(=O)NC(=O)Nc1nc(OCC(F)(F)F)nc(N(C)C)n1 [Triflusulfuron-methyl] | 39
Cn1cc(C(=O)Nc2ccc(F)cc2-c2ccc(Cl)c(Cl)c2)c(C(F)F)n1 [Bixafen] | 42.2
COC(=O)c1ccc(C)cc1C1=NC(C)(C(C)C)C(=O)N1 (stereo unspecified) [Imazamethabenz-methyl] | 14.2
CCCCCC=CCC=CCC=CCC=CCCCC(=O)O [Arachidonic Acid] | 47
CC12CCC3C(CCC4=CC(=O)CCC43C)C1CCC2=O (stereo unspecified) [Androstenedione] | 31.5
CC12CCC(=O)C=C1CCC1C2C(=O)CC2(C)C1CCC2(O)C(=O)CO (stereo unspecified) [Cortisone] | 16.1
NCCc1c[nH]c2ccc(O)cc12 [5-Hydroxytryptamine] | 4.3
CSC1=NC(C)(c2ccccc2)C(=O)N1Nc1ccccc1 (stereo unspecified) [Fenamidone] | 35.8
CCC(C)(CC)c1cc(NC(=O)c2c(OC)cccc2OC)on1 [Isoxaben] | 39
CC(C)Cc1ccc(C(C)C(=O)O)cc1 (stereo unspecified) [Ibuprofen] | 39.9
CNCC(O)c1ccc(O)c(O)c1 (stereo unspecified) [Epinephrine] | 4.39
CCS(=O)(=O)c1nnc(N(C)C(=O)NC)s1 [Ethidimuron] | 9.06
CCOCN(C(=O)CCl)c1c(C)cccc1CC [Acetochlor] | 40.6

SMILES | LC retention time [min]
O=C1Nc2ccc(Cl)cc2C(c2ccccc2)=NC1O (stereo unspecified) [Oxazepam] | 20.6
Cc1cc(C)nc(Nc2ccccc2)n1 [Pyrimethanil] | 22.2
CC(C)N(C(=O)COc1nnc(C(F)(F)F)s1)c1ccc(F)cc1 [Flufenacet] | 41.1
CNCCC(Oc1ccc(C(F)(F)F)cc1)c1ccccc1 (stereo unspecified) [Fluoxetine] | 23.7
CCOC(=O)C1CC(=O)C(=C(O)C2CC2)C(=O)C1 (stereo unspecified) [Trinexapac-ethyl] | 26.5
CCCOC(=O)NCCCN(C)C [Propamocarb] | 5.59
CC(C)(C)C(O)C(Cc1ccc(Cl)cc1)n1cncn1 (stereo unspecified) [Paclobutrazole] | 31.5
CC12CCC(=O)C=C1CCC1C2C(O)CC2(C=O)C(C(=O)CO)CCC12 (stereo unspecified) [Aldosterone] | 13.8
CCc1cccc(C)c1N(C(=O)CCl)C(C)COC (stereo unspecified) [Metolachlor] | 26.7
COc1cc(OC)nc(NC(=O)NS(=O)(=O)c2cc(NC=O)ccc2C(=O)N(C)C)n1 [Foramsulfuron] | 17.9
O=C(Nc1ccccc1-c1ccc(Cl)cc1)c1cccnc1Cl [Boscalid] | 38
CS(=O)(=O)c1ccc(C(=O)C2C(=O)CCCC2=O)c([N+](=O)[O-])c1 [Mesotrione] | 16.5
COCC(=O)N(c1c(C)cccc1C)C(C)C(=O)OC (stereo unspecified) [Metalaxyl] | 24.3
CCNC(=O)C(C)OC(=O)Nc1ccccc1 (stereo unspecified) [Carbetamide] | 13.5
CCNc1nc(NC(C)(C)C)[nH]c(=O)n1 [Tertbutylazine-2-hydroxy] | 8.38
Nc1cnn(-c2ccccc2)c(=O)c1Cl [Chloridazon] | 9.25
O=C(O)Cc1c[nH]c2ccc(O)cc12 [Hydroxyindoleacetic acid] | 5.71
COc1ccc(C(=CC(=O)N2CCOCC2)c2ccc(Cl)cc2)cc1OC [Dimethomorph] | 32.7
